US10501449B2 (priority 2018, dated 2019)
Like-named read-outs stand apart in the source and are kept apart here.

Tests used:
hROMK (human Kir1.1) [1] = biological target: T1, hROMK (human Kir1.1) (Homo sapiens (Human), UniProt P48048); assay: cell-based; format: cell-based; conditions: whole-cell manual patch clamp, CHO T-Rex hROMK stable cell line, voltage step to -120 mV, Ba2+-subtracted hROMK current; read-out: ROMK EP IC50
Protocol: ROMK Manual Patch Clamp Assay
Cell culture conditions: Cells were maintained in conditions similar to those for Thallium flux assay. hROMK channel expression was induced by adding 0.6 μg/ml of Doxycycline 16-24 hrs prior to the experiments. On the day of experiment, the cells were dissociated using Versene, resuspended in growth media and plated onto coverslips 15 minutes prior to use.
Electrophysiology: The coverslip plated with cells was placed in the experiment chamber perfused with bath solution composed of (in mM): 135 NaCl, 5 KCl, 2 CaCl2, 1 MgCl2, 10 HEPES, 5 Glucose (pH 7.4). Patch pipettes with resistance between 2-5 Megaohms, when filled with a solution containing (in mM): 135 KCl, 1 EGTA, 1 MgCl2, 10 HEPES, 2 Na2ATP (pH 7.3), were used to form gigaseals. The cells were voltage clamped at −75 mV in whole-cell configuration using an Axopatch 200b or Multiclamp 700b (Molecular Devices) amplifier controlled by pClamp Software (Molecular Devices). The current was recorded by applying a voltage step to −120 mV every 10 seconds. […] At the end of the experiment, the cells were perfused with bath solution containing 2 mM Ba^2+ to isolate the contribution of hROMK current.
Data analysis: Raw current values (5 traces each for control, different compound concentration and Ba^2+ treatment groups) were exported from Clampfit into Microsoft Excel where the current remaining after application of Ba^2+ was subtracted from raw current to obtain hROMK specific current.

hERG channels = hERG channels (Homo sapiens (Human), UniProt Q12809); assay: hERG Manual Patch Clamp Assay; format: cell-based; conditions: human, HEK 293 cells stably expressing hERG channels, pH 7.4, 1 uM, read-out: hERG EP % Inh @ 1 uM
Protocol: hERG electrophysiology assay: The experimental compounds were assessed for hERG activity on HEK 293 cells stably expressing hERG channels using patch clamp technique. Coverslips plated with hERG expressing cells were placed in the experimental chamber and were perfused with a solution composed of (in mM): 140 NaCl, 4 KCl, 1.8 CaCl2, 1 MgCl2, 10 Glucose, 10 HEPES (pH 7.4, NaOH) at room temperature. Borosilicate patch pipettes had tip resistances of 2-4 Mohms when filled with an internal solution containing: 130 KCl, 1 MgCl2, 1 CaCl2, 10 EGTA, 10 HEPES, 5 ATP-K2 (pH 7.2, KOH). The cells were clamped at −80 mV in whole cell configuration using an Axopatch 200B (Axon instruments, Union City, Calif.) patch clamp amplifier controlled by pClamp (Axon instruments) software. Upon formation of a gigaseal, the following voltage protocol was repeatedly (0.05 Hz) applied to record tail currents: depolarization step from −80 mV to +20 mV for 2 seconds followed by a hyperpolarization step to −65 mV (3 seconds) to elicit tail currents. Compounds were applied after stabilization of tail current. First, tail currents were recorded in presence of extracellular solution alone (control) and subsequently, in extracellular solution containing increasing compound concentrations. Each compound concentration was applied for 2-5 minutes. The percentage inhibition at each concentration was calculated as reduction in peak tail current with respect to the peak tail current recorded in the presence of control solution. Data analysis was performed in a custom made template. The percent inhibitions at different concentrations were plotted to obtain a concentration response curve, which was subsequently fitted with a four parameter equation to calculate hERG IC50 value.

hROMK (human Kir1.1) [2] = biological target: T1, hROMK (human Kir1.1); assay: cell-based; conditions: CHO T-Rex hROMK stable cell line; thallium flux; 10-point concentration response curve; read-out: Human ROMK Th Flux IC50
Protocol: Solutions and reagents: Thallium flux assay was performed using FluxOR kit (F10017, Life Technologies). Loading buffer, assay buffer and stimulus buffer were prepared using kit components. HBSS (Hank's balanced salt solution, Cat#14025-092) was purchased separately from Life Technologies.
To prepare 10 ml of loading buffer: 10 μl of FluxOR dye (reconstituted in DMSO) was first added to 100 μl of powerload concentrate and this mix along with 100 μl of Probenicid (100×) was then added to 9.79 ml of HBSS. Assay buffer (10 ml) was prepared by addition of 2 ml of FluxOR chloride free buffer (5×), 100 μl of Probenicid (100×), and 0.2 ml of Ouabain (13.77 mM) to 7.7 ml of deionized water. Stimulus buffer was composed of 15 mM Tl2SO4, 0.75 mM K2SO4 in FluxOR chloride free buffer (diluted to 1× using deionized water). The final concentration of Tl2SO4 and K2SO4 in the assay plate was 3 mM and 0.15 mM, respectively.
Plating and induction of cells: The CHO T-Rex hROMK (human Kir1.1) stable cell line was maintained in Ham's F12 media supplemented with 10% FBS, 1% Penicillin-Streptomycin, 500 μg/ml Zeocin and 10 μg/ml Blasticidin at 37° C. in a 5% CO2 incubator. One day before the experiment, the cells were dissociated by incubation with Versene solution (15040-066, Life Technologies) for 10 minutes at 37° C. followed by addition of growth media. The cell suspension was centrifuged at 1200 rpm for 5 min. After discarding the supernatant, the cells were resuspended in fresh growth media and cell concentration was determined using a hemocytometer. Next, 0.5 μg/ml of Doxycycline was added to the cell suspension to induce hROMK channel expression and 50 μl (10,000 cells/well) of cell suspension was added to each well of a poly-D lysine coated 384 well black, optically clear bottom plate (6007718, Perkin Elmer). The assay plate was kept at 37° C. in a 5% CO2 incubator.
Assay protocol: On the day of experiment, media was removed and loading buffer was added (30 μl/well) to the assay plate. The cells were incubated in the loading buffer for 30 minutes at 37° C. The loading buffer was then replaced by assay buffer (30 μl/well) followed by addition of test compounds or controls. The cells were incubated with compounds for 30 minutes and the plate was then mounted on FlexStation (Molecular Devices) for fluorescence read out with excitation and emission wavelengths at 488 and 525 nm, respectively. Each well was read for 90 sec at 2 sec interval and the stimulus buffer was added after 20 seconds of baseline recording. The final DMSO concentration was either 0.5 or 1% in the assay plate. Positive and negative controls were defined by addition of DMSO or 3 μM of a standard ROMK inhibitor, respectively, to the wells instead of a test compound.
A 10-point concentration response curve was used to estimate the IC50 value of test compounds.

T1 sequence (P48048 whole entry): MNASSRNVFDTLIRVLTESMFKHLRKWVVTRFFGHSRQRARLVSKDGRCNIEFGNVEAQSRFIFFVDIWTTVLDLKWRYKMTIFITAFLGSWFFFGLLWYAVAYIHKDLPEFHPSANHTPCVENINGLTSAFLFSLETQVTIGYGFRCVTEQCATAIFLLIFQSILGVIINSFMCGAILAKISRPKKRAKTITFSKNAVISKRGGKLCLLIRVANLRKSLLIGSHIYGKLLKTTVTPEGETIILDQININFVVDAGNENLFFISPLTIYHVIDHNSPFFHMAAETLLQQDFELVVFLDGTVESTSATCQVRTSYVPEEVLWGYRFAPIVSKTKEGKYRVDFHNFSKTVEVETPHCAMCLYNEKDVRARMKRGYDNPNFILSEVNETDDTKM
hERG channels, sequence (Q12809 whole entry): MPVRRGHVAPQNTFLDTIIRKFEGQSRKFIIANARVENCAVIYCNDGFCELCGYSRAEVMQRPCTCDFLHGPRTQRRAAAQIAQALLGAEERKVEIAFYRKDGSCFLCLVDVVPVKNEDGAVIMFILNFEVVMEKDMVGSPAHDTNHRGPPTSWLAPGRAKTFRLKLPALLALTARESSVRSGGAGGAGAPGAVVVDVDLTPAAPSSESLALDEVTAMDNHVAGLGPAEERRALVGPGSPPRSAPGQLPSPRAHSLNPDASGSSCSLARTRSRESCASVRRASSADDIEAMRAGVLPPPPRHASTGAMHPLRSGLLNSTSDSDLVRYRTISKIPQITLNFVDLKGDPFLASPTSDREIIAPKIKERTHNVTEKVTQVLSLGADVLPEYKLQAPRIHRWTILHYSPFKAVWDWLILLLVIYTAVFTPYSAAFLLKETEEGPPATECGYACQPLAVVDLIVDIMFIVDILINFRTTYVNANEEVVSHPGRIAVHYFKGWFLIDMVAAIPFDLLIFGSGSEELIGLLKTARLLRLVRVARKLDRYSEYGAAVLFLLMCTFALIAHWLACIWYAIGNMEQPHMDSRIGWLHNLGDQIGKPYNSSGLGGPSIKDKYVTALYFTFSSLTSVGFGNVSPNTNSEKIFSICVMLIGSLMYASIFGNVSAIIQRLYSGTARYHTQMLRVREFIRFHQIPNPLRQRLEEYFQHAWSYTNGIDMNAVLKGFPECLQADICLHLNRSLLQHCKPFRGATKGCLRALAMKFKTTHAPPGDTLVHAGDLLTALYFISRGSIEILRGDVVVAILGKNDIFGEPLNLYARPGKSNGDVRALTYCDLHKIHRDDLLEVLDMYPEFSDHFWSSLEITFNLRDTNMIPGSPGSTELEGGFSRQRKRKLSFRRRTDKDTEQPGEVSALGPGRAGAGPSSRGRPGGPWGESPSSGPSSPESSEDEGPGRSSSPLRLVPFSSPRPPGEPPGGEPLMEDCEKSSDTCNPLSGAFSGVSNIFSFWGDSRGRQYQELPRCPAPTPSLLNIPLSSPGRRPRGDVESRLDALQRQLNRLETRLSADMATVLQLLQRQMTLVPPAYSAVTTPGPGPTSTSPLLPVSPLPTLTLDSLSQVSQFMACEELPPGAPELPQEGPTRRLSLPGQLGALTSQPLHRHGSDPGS

Row | SMILES | IC50 (hROMK (human Kir1.1) [1]) [nM] | inhibition at 1 µM (hERG channels) [%] | IC50 (hROMK (human Kir1.1) [2]) [nM]
1 | Cc1c([C@@H]2CN(Cc3cnn(-c4ccnc(C(F)F)c4)c3)C[C@H](C)N2)ccc2c1COC2=O [Example 127-I, 5-((2R,6S)-4-((1-(2-(difluoromethyl)pyridin-4-yl)-1H-pyrazol-4-yl)methyl)-6-methylpiperazin-2-yl)-4-methylisobenzofuran-1(3H)-one] | 14 | 16 | 21
2 | Cc1cc(-c2nc(CN3C[C@@H](c4ccc5c(c4C)COC5=O)N[C@@H](C)C3)co2)ncc1C#N [Example 130-I] | 20 | 8.4 | 52
3 | Cc1cn(-c2ncc(CN3CCN[C@H](c4ccc5c(c4C)COC5=O)C3)cn2)c(C)n1 [Example 139-I, (R)-5-(4-((2-(2,4-dimethyl-1H-imidazol-1-yl)pyrimidin-5-yl)methyl)piperazin-2-yl)-4-methylisobenzofuran-1(3H)-one] | 30 | 6.6 | 36
4 | Cc1ncn(-c2ncc(CN3CCN[C@H](c4ccc5c(c4C)COC5=O)C3)cn2)c1C [Example 148-I, (R)-5-(4-((2-(4,5-dimethyl-1H-imidazol-1-yl)pyrimidin-5-yl)methyl)piperazin-2-yl)-4-methylisobenzofuran-1(3H)-one] | 19 | 8.8 | 27
5 | Cc1nc(-n2ncc(CN3C[C@@H](c4ccc5c(c4C)COC5=O)N[C@@H](C)C3)n2)nc(C)c1C#N [Example 151-I, 4,6-dimethyl-2-(4-(((3S,5R)-3-methyl-5-(4-methyl-1-oxo-1,3-dihydroisobenzofuran-5-yl)piperazin-1-yl)methyl)-2H-1,2,3-triazol-2-yl)pyrimidine-5-carbonitrile] | 64 | 5.1 | 43
6 | Cc1nc(-n2cnc(CN3C[C@@H](c4ccc5c(c4C)COC5=O)N[C@@H](C)C3)c2)ncc1C#N [Example 164-I, 4-methyl-2-(4-(((3S,5R)-3-methyl-5-(4-methyl-1-oxo-1,3-dihydroisobenzofuran-5-yl)piperazin-1-yl)methyl)-1H-imidazol-1-yl)pyrimidine-5-carbonitrile] | 30 | 6 | 31
7 | Cc1c([C@@H]2CN(Cc3ccc(-c4ccc(S(C)(=O)=O)nc4)nc3)C[C@H](C)N2)ccc2c1COC2=O [Example 165-I, 4-methyl-5-((2R,6S)-6-methyl-4-((6′-(methylsulfonyl)-[2,3′-bipyridin]-5-yl)methyl)piperazin-2-yl)isobenzofuran-1(3H)-one] | 39 | 5.4 | 67
8 | COc1nc(-n2ncc(CN3C[C@@H](c4ccc5c(c4C)COC5=O)N[C@@H](C)C3)n2)ncc1C#N [Example 166-I, 4-methoxy-2-(4-(((3S,5R)-3-methyl-5-(4-methyl-1-oxo-1,3-dihydroisobenzofuran-5-yl)piperazin-1-yl)methyl)-2H-1,2,3-triazol-2-yl)pyrimidine-5-carbonitrile] | 13 | 6 | 30
9 | COc1nc(-n2cc(CN3C[C@@H](c4ccc5c(c4C)COC5=O)N[C@@H](C)C3)nc2C)ncc1C#N [Example 167-I, 4-methoxy-2-(2-methyl-4-(((3S,5R)-3-methyl-5-(4-methyl-1-oxo-1,3-dihydroisobenzofuran-5-yl)piperazin-1-yl)methyl)-1H-imidazol-1-yl)pyrimidine-5-carbonitrile] | 18 | 11 | 26
10 | COc1cc(-n2ncc(CN3CCN[C@H](c4ccc5c(c4C)COC5=O)C3)n2)ncc1C#N [Example 168-I, (R)-4-methoxy-6-(4-((3-(4-methyl-1-oxo-1,3-dihydroisobenzofuran-5-yl)piperazin-1-yl)methyl)-2H-1,2,3-triazol-2-yl)nicotinonitrile] | 29 | 22 | 20
11 | COc1cc(-n2cc(CN3CC[C@@H](O)[C@H](c4ccc5c(c4C)COC5=O)C3)n(C)c2=O)ncc1C#N [Example 171-I, 6-(4-(((3R,4R)-4-hydroxy-3-(4-methyl-1-oxo-1,3-dihydroisobenzofuran-5-yl)piperidin-1-yl)methyl)-3-methyl-2-oxo-2,3-dihydro-1H-imidazol-1-yl)-4-methoxynicotinonitrile] | 26 | 16 | 27
12 | Cc1nccc(-n2cc(CN3C[C@@H](c4ccc5c(c4C)COC5=O)N[C@@H](C)C3)n(C)c2=O)n1 [Example 173-I, 3-methyl-4-(((3S,5R)-3-methyl-5-(4-methyl-1-oxo-1,3-dihdyroisobenzofuran-5-yl)piperazin-1-yl)methyl)-1-(2-methylpyrimidin-4-yl)-1,3-dihydro-2H-imidazol-2-one] | 21 | 4 | 55
13 | Cc1cc(-n2ncc(CN3CCN[C@H](c4ccc5c(c4C)COC5=O)C3)n2)nc(C)c1C#N [Example 184-I, (R)-2,4-dimethyl-6-(4-((3-(4-methyl-1-oxo-1,3-dihydroisobenzofuran-5-yl)piperazin-1-yl)methyl)-2H-1,2,3-triaozl-2-yl)nicotinonitrile] | 10 | 6.1 | 30
14 | COc1cc(-n2cc(CN3CCN[C@H](c4ccc5c(c4C)COC5=O)C3)nn2)nc(C)c1C#N [Example 187-I, (R)-4-methoxy-2-methyl-6-(4-((3-(4-methyl-1-oxo-1,3-dihydroisobenzofuran-5-yl)piperaizn-1-yl)methyl)-1H-1,2,3-triazol-1-yl)nicotinonitrile] | 25 | 11 | 43
15 | COc1cc(-n2ncc(CN3CCN[C@H](c4ccc5c(c4C)COC5=O)C3)n2)nc(C)c1C#N [Example 188-I, (R)-4-methoxy-2-methyl-6-(4-((3-(4-methyl-1-oxo-1,3-dihydroisobenzofuran-5-yl)piperazin-1-yl)methyl)-2H-1,2,3-triazol-2-yl)nicotinonitrile] | 18 | 18 | 37
16 | COc1nc(-n2cc(CN3CCN[C@H](c4ccc5c(c4C)COC5=O)C3)nn2)cc(C)c1C#N [Example 189-I, (R)-2-methoxy-4-methyl-6-(4-((3-(4-methyl-1-oxo-1,3-dihydroisobenzofuran-5-yl)piperazin-1-yl)methyl)-1H-1,2,3-triazol-1-yl)nicotinonitrile] | 17 | 8.9 | 25
17 | Cc1cc(-c2nnc(CN3C[C@@H](c4ccc5c(c4C)COC5=O)N[C@@H](C)C3)o2)ncc1C#N [Example 191-I, 4-methyl-6-(5-(((3S,5R)-3-methyl-5-(4-methyl-1-oxo-1,3-dihydroisobenzofuran-5-yl)piperazin-1-yl)methyl)-1,3,4-oxadiazol-2-yl)nicotinonitrile] | 21 | 4.3 | 29
18 | Cc1cc(-c2cc(CN3CC[C@@H](O)[C@H](c4ccc5c(c4C)COC5=O)C3)on2)ncc1C#N [Example 193-I, 6-(5-(((3R,4R)-4-hydroxy-3-(4-methyl-1-oxo-1,3-dihydroisobenzofuran-5-yl)piperidin-1-yl)methyl)isoxazol-3-yl)-4-methylnicotinonitrile] | 20 | 14 | 44
